Series [1] addresses T1, CCK2i4svR (Homo sapiens, UniProt P32239).
T1 construct: expressed in transfected cells; host or cells: HEK-293, G418-selected, from Dr. Mark Hellmich (University of Texas at Galveston)
T1 sequence (P32239 1-516 isoform P32239-2): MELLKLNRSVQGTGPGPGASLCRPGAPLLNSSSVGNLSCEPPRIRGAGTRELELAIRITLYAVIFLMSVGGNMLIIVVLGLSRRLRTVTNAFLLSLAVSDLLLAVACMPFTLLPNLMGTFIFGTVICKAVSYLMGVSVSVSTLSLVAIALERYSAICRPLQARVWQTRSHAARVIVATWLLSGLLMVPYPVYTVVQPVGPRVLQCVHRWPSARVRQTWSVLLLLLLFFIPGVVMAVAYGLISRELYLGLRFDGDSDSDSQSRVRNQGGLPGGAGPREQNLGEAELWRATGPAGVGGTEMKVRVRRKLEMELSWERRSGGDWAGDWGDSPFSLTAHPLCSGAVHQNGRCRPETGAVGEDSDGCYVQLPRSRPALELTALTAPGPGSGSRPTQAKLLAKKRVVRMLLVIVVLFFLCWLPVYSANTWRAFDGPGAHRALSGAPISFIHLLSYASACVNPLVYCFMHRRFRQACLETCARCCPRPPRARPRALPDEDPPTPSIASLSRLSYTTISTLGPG
The series is described as follows: Binding of 99mTc conjugates to HEK CCK2i4svR cells (cell bound radioactivity). The protocol: (§1) CRL-1, CRL-2, CRL-3 and CRL-4 were chelated to ^99mTc and tested for binding using two transfected cell lines of HEK-CCK2R (HEK-293 CCK2R) and HEK-CCK2R splice cell line (HEK CCK2i4svR), obtained from Dr. Mark Hellmich (University of Texas at Galveston). Cells were cultured in Dulbecco's modified Eagles (Gibco) supplemented with 10% Fetal Bovine Serum and G418 disulfate (SIGMA; 400 μg/ml), 1% penicillin/streptomycin at 37° C. in a humidified 95% air, 5% CO2 atmosphere.
(§2) Competition studies were performed using 100 fold excess of free Z-360 containing corresponding peptide linker and no chelating moiety. HEK 293 CCK2R and HEK CCK2i4svR were seeded onto 24 well plates and allowed to become confluent over 48-72 hours. Spent medium in each well was replaced with 0.5 ml fresh media containing 0.5% BSA and increasing concentrations of the test article. After incubating for 1 h at 37° C. cells were rinsed with incubation solution (2×1.0 ml) to remove any unbound radioactivity. Cells were then resuspended on 0.5 ml 0.25N NaOH and cell radioactivity was counted using a γ-counter. The dissociation constant (KD) was calculated using a plot of cell bound radioactivity versus the concentration of the radiotracer using Graphpad Prism 4 and assuming a non-cooperative single site binding equilibrium.

Series [2] relates to HEK CCK2i4svR tumors. The series is described as follows: In vivo radio-imaging and bio-distribution, HEK CCK2i4svR tumor xenografts. Details: species or system nu/nu mice. The protocol:
In order to test the in vivo specificity of CRL-3 chelated with ^99mTc, HEK CCK2R and CCK2i4svR subcutaneous tumors were produced in nude mice according to known methods. Athymic female nu/nu mice were purchased from Harlan Laboratories and maintained on normal rodent chow and housed in a sterile environment on a standard 12 hour light and dark cycle for the duration of the study. All animal procedures were approved by the Purdue Animal Care and Use Committee in accordance with NIH guidelines.
150 microcurie of CRL-3 ^99mTc was injected intravenously into each mouse. FIGS. 3A-B show an overlay of whole-body radio-images on white light photographs of mice bearing images of HEK CCK2R (a, b) and HEK CCKRi4sv (c, d) tumor xenografts in nu/nu mice two hours after the administration of CRL-3 ^99mTc. Kidneys were shielded with a lead plate. Mice a and c had the radioactive conjugate administered along with 100 fold of free unlabeled targeting ligand. In mice b and d, only the radio-conjugate CRL-3 ^99mTc was administered. Arrows indicate location of the tumor.
Following the above radio-imaging studies, animals were dissected and selected organs/tissues were collected into pre-weighed γ-counter tubes. Radioactivity of weighed tissues and test compounds were counted in a γ-counter. CPM values were decay corrected and results were calculated as % injected dose per gram of wet tissue (% ID/g). […]

Series [3] addresses T2, CCK2R (Homo sapiens, UniProt P32239).
T2 sequence (P32239 1-447): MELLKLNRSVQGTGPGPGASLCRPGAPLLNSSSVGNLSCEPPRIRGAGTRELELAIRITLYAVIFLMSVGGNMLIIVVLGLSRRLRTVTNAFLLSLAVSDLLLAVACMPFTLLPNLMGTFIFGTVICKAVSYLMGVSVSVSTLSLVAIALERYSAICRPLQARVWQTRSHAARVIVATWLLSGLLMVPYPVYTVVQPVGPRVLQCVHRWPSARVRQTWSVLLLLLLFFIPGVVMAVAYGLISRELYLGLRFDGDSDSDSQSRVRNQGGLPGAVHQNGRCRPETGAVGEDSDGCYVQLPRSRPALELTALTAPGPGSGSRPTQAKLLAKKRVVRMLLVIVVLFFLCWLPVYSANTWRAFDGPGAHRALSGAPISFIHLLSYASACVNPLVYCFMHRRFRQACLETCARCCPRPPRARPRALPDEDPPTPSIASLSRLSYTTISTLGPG
The series is described as follows: Binding of 99mTc conjugates to HEK-293 CCK2R cells (cell bound radioactivity). Details: expressed in transfected cells; host or cells: HEK-293, G418-selected, from Dr. Mark Hellmich (University of Texas at Galveston). Here is the method: as §1, §2

In general, Kd refers to the free concentration of one partner at which half of the binding sites on the other are occupied at equilibrium, for simple one-to-one binding. Take `CC(C)(C)C(=O)CN1C(=O)[C@H](NC(=O)Nc2cccc(C(=O)NCCCCCCCC(=O)N[C@H](CCC(=O)O)C(=O)N[C@H](CCC(=O)NC[C@H](O)[C@@H](O)[C@H](O)[C@H](O)CO)C(=O)N[C@H](CCC(=O)O)C(=O)N[C@H](CCC(=O)NC[C@H](O)[C@@H](O)[C@H](O)[C@H](O)CO)C(=O)NC[C@@H]3[NH][99Tc]45[S]C[C@@H](C(=O)O)[N]4C(=O)[C@H](CC(=O)O)[N]5C3=O)c2)CN(C2CCCCC2)c2ccccc21` (stereo partly shown) [CRL-3 ^99mTc]: the results for the Kd in series [1] and in series [3] were 4 nM and 30 nM, respectively. The “accumulation of radio-conjugate, whole-body radio-image” value in series [2] (150 microcurie i.v., two hours after administration, kidneys shielded) is “accumulated mainly in the receptor expressing tumor with little or no accumulation in other tissues except the kidney”. The “bio-distribution of radiotracer in organs/tissues” value in series [2] (after radio-imaging, n=5 mice/group) was “only the tumor and kidneys show excessive accumulation of radiotracer”.

Values taken from patent US12485179B2, “Cholecystokinin B receptor targeting for imaging and therapy” (Purdue Research Foundation, priority 2012, dated 2025).
